Assay results as given in ChEMBL document CHEMBL1201862, “PubChem BioAssay data set” (2004).
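48-hour exposure; five concentrations; linearly interpolated endpoints. The concentration for 50% growth inhibition is given as GI50.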 The source made the active and inactive calls. No stated cut-off is given here; in the data, active = GI50 up to about 1.1 µM and inactive = higher.

What was measured:
Assay in all cases: inhibition of tumour cell growth, NCI panel, 48 h
A498 = test system: A498
CCRF-CEM = test system: CCRF-CEM
HCC 2998 = test system: HCC 2998
HL-60 = test system: HL-60
HOP-62 = test system: HOP-62
HOP-92 = test system: HOP-92
IGROV-1 = test system: IGROV-1
LOX IMVI = test system: LOX IMVI
M14 = test system: M14
MDA-N = test system: MDA-N
NCI-H23 = test system: NCI-H23
NCI-H460 = test system: NCI-H460
NCI/ADR-RES = test system: NCI/ADR-RES
OVCAR-3 = test system: OVCAR-3
SF-268 = test system: SF-268
SK-MEL-28 = test system: SK-MEL-28
SK-MEL-2 = test system: SK-MEL-2
SK-MEL-5 = test system: SK-MEL-5
SN12C = test system: SN12C
T47D = test system: T47D

| SMILES | GI50 (A498) | GI50 (CCRF-CEM) | GI50 (HCC 2998) | GI50 (HL-60) | GI50 (HOP-62) | GI50 (HOP-92) | GI50 (IGROV-1) | GI50 (LOX IMVI) | GI50 (M14) | GI50 (MDA-N) | GI50 (NCI-H23) | GI50 (NCI-H460) | GI50 (NCI/ADR-RES) | GI50 (OVCAR-3) | GI50 (SF-268) | GI50 (SK-MEL-28) | GI50 (SK-MEL-2) | GI50 (SK-MEL-5) | GI50 (SN12C) | GI50 (T47D) |
| --- | --- | --- | --- | --- | --- | --- | --- | --- | --- | --- | --- | --- | --- | --- | --- | --- | --- | --- | --- | --- |
| C=C(C)[C@H]1CC(=O)[C@@]2(C)C[C@H]3O[C@]3(C)CC/C=C(\C)CC[C@H]12 | 36.1 µM (inactive) | 32.7 µM (inactive) | > 100 µM (inactive) | 21.6 µM (inactive) | 74.1 µM (inactive) | 64.1 µM (inactive) | 73.1 µM (inactive) | 57.5 µM (inactive) | > 10 µM (inactive) | 49 µM (inactive) | 34.4 µM (inactive) | 45.7 µM (inactive) | 35.4 µM (inactive) | 29.9 µM (inactive) | 77.3 µM (inactive) | 50.4 µM (inactive) | 45.1 µM (inactive) | 32.2 µM (inactive) | 23.6 µM (inactive) | 38.4 µM (inactive) |
| O=C1CSC(c2cc3cc(Br)ccc3nc2Cl)N1c1ccc(F)c(Cl)c1 (stereo not given) | > 50 µM (inactive) | 13.1 µM (inactive) | > 50 µM (inactive) | > 50 µM (inactive) | > 50 µM (inactive) | > 50 µM (inactive) | 18.6 µM (inactive) | 22.9 µM (inactive) | > 50 µM (inactive) | 48.3 µM (inactive) | > 50 µM (inactive) | 40.8 µM (inactive) | > 50 µM (inactive) | > 50 µM (inactive) | 29.5 µM (inactive) | > 50 µM (inactive) | > 50 µM (inactive) | > 50 µM (inactive) | > 50 µM (inactive) | 31.4 µM (inactive) |
| C/C(=N\Nc1nc2cc(Cl)ccc2s1)c1ccccn1 | 1.61 µM (inactive) | 0.373 µM (active) | 11.5 µM (inactive) | 0.14 µM (active) | 0.904 µM (active) | 0.473 µM (active) | 0.127 µM (active) | 0.459 µM (active) | 0.443 µM (active) | 1.73 µM (inactive) | 0.403 µM (active) | 0.673 µM (active) | 0.343 µM (active) | 0.0946 µM (active) | 0.365 µM (active) | 2.56 µM (inactive) | 0.442 µM (active) | 0.428 µM (active) | 0.372 µM (active) | 0.402 µM (active) |
| CC1(C)OC(=O)N(c2ccccc2)C12C=Cc1cc([N+](=O)[O-])cc([N+](=O)[O-])c1O2 (stereo not given) | 81.3 µM (inactive) | > 100 µM (inactive) | > 100 µM (inactive) | 61.9 µM (inactive) | 97.9 µM (inactive) | 12.4 µM (inactive) | > 100 µM (inactive) | > 100 µM (inactive) | 61.5 µM (inactive) | > 100 µM (inactive) | > 100 µM (inactive) | > 100 µM (inactive) | > 100 µM (inactive) | 97.7 µM (inactive) | 98.9 µM (inactive) | > 100 µM (inactive) | > 100 µM (inactive) | > 100 µM (inactive) | > 100 µM (inactive) | > 100 µM (inactive) |
| Cc1ccc(NC(c2ccccc2)c2ccc3cccnc3c2O)cc1 (stereo not given) | 12.2 µM (inactive) | 0.787 µM (active) | 16.4 µM (inactive) | 2.04 µM (inactive) | 4.97 µM (inactive) | 3.48 µM (inactive) | 4.09 µM (inactive) | 3.6 µM (inactive) | 4.69 µM (inactive) | 4.1 µM (inactive) | 5.79 µM (inactive) | 2.58 µM (inactive) | 2.79 µM (inactive) | 2.59 µM (inactive) | 2.24 µM (inactive) | 9.29 µM (inactive) | 7.5 µM (inactive) | 3.97 µM (inactive) | 4.63 µM (inactive) | 7.23 µM (inactive) |
| O=C(O)COCC(=O)N(CCOCCN(Cc1ccccc1)C(=O)COCC(=O)O)Cc1ccccc1 | > 100 µM (inactive) | > 100 µM (inactive) | > 100 µM (inactive) | > 100 µM (inactive) | > 100 µM (inactive) | < 0.01 µM (active) | > 100 µM (inactive) | > 100 µM (inactive) | > 100 µM (inactive) | > 100 µM (inactive) | > 100 µM (inactive) | > 100 µM (inactive) | > 100 µM (inactive) | > 100 µM (inactive) | > 100 µM (inactive) | > 100 µM (inactive) | > 100 µM (inactive) | > 100 µM (inactive) | > 100 µM (inactive) | > 100 µM (inactive) |
| COc1ccc(NC(C(N)=O)c2cc3cc(Br)ccc3nc2Cl)cc1 (stereo not given) | > 100 µM (inactive) | 26.2 µM (inactive) | 73.8 µM (inactive) | 25.4 µM (inactive) | 59.8 µM (inactive) | 22.5 µM (inactive) | 25.5 µM (inactive) | 44.6 µM (inactive) | 42 µM (inactive) | 28.1 µM (inactive) | > 100 µM (inactive) | 89.5 µM (inactive) | 39 µM (inactive) | 60.7 µM (inactive) | 76.4 µM (inactive) | > 100 µM (inactive) | 30.3 µM (inactive) | 53.5 µM (inactive) | > 100 µM (inactive) | 58.1 µM (inactive) |
| CCCCCC(/C=N/N)C(O)(C(F)(F)F)C(F)(F)F (stereo not given) | 2.44 µM (inactive) | > 10 µM (inactive) | 6.78 µM (inactive) | > 10 µM (inactive) | 4.78 µM (inactive) | 2.79 µM (inactive) | 7.18 µM (inactive) | 3.32 µM (inactive) | 4.47 µM (inactive) | 3.55 µM (inactive) | 3.58 µM (inactive) | 3.34 µM (inactive) | > 10 µM (inactive) | 2.04 µM (inactive) | 1.87 µM (inactive) | 2.64 µM (inactive) | 3.37 µM (inactive) | 1.77 µM (inactive) | 3.23 µM (inactive) | 7.08 µM (inactive) |
| O=C1Cc2c([nH]c3ccc([N+](=O)[O-])cc23)-c2ccccc2N1 [ALSTERPAULLONE] | 0.822 µM (active) | 0.118 µM (active) | 0.914 µM (active) | 0.261 µM (active) | 0.279 µM (active) | 7.93 µM (inactive) | 0.53 µM (active) | 0.181 µM (active) | 0.453 µM (active) | 0.367 µM (active) | 0.557 µM (active) | 0.396 µM (active) | 0.61 µM (active) | 0.158 µM (active) | 0.471 µM (active) | 0.345 µM (active) | 0.713 µM (active) | 0.174 µM (active) | 0.391 µM (active) | 2.88 µM (inactive) |
| CCCC[C@H]1C(=O)O[C@H](C)[C@H](NC(=O)c2cccc(NC=O)c2O)C(=O)O[C@@H](C)[C@@H]1OC(=O)CC(C)C [ANTIMYCIN A3] | 4.23 µM (inactive) | < 0.0229 µM (active) | 10.9 µM (inactive) | 0.0968 µM (active) | 8.41 µM (inactive) | 5.36 µM (inactive) | 3.94 µM (inactive) | < 0.01 µM (active) | 14.9 µM (inactive) | 2.43 µM (inactive) | 0.294 µM (active) | < 0.01 µM (active) | 5.32 µM (inactive) | 2.38 µM (inactive) | 6.56 µM (inactive) | 6.73 µM (inactive) | 1.97 µM (inactive) | < 0.01 µM (active) | 14.2 µM (inactive) | 2.19 µM (inactive) |
